Source: patent US20070004660A1, “Synergistic Modulation of Flt3 Kinase Using Alkylquinolines and Alkylquinazolines” (priority 2005, published 2007)
Where a name gives a salt, the structure may show the parent alone.

Biological target: T1, wild-type FLT3 receptor (Homo sapiens, UniProt P36888)
T1 construct: host or cells: Baf3 (murine B cell lymphoma line), stably transfected
T1 sequence (P36888 27-993): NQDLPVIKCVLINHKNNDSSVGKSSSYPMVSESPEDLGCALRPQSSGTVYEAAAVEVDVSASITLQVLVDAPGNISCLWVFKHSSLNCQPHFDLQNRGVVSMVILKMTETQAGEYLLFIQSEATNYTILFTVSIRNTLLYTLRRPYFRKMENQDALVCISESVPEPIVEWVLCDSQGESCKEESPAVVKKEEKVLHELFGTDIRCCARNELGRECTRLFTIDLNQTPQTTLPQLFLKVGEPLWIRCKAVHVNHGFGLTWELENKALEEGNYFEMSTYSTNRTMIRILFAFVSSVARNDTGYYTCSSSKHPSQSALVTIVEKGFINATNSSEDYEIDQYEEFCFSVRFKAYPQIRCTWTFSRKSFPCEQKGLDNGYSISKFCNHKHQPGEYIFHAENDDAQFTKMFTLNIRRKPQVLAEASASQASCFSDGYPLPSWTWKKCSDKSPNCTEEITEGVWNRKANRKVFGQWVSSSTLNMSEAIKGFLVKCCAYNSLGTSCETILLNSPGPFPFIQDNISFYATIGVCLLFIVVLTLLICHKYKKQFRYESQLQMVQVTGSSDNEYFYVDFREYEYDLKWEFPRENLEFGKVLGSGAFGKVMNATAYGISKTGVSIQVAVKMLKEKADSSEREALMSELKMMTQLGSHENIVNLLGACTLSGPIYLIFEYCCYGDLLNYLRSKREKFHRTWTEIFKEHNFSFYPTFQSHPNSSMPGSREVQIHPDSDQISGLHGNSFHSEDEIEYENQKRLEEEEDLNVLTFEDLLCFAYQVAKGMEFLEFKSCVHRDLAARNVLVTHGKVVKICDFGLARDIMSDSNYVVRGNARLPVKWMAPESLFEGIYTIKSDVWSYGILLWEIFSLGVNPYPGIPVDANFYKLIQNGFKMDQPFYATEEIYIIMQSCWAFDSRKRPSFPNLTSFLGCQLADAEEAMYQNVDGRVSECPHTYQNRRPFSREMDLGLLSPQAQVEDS
Assay: Cell-based FLT3 receptor ELISA (FLT ligand-induced phosphorylation in Baf3 FLT3 cells)
Settings: 100 ng/mL Flt ligand, uncertainty ±20%
How it was run: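 Receptor phosphotyrosine measured by sandwich ELISA (anti-FLT3 capture, HRP anti-pTyr, luminescence) in FLT3-transfected murine Baf3 cells given 1 h compound pretreatment and 10 min 100 ng/mL FLT ligand after overnight low-serum starvation; triplicates, IC50 from nonlinear regression.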

SMILES | IC50
CS(=O)(=O)N1CCN(c2ccc3c(C4CCN(C(=O)Nc5ccc(N6CCOCC6)cc5)CC4)ncnc3c2)CC1 [Example 142, 4-[7-(4-Methanesulfonyl-piperazin-1-yl)-quinazolin-4-yl]-piperidine-1-carboxylic acid (4-morpholin-4-yl-phenyl)-amide] | 5 nM
O=C(Nc1ccc(N2CCCC2)cc1)N1CCC(c2ncnc3cc(OCCN4CCC[C@H]4CO)ccc23)CC1 [Example 152, (S)-4-{7-[2-(2-Hydroxymethyl-pyrrolidin-1-yl)-ethoxy]-quinazolin-4-yl}-piperidine-1-carboxylic acid (4-pyrrolidin-1-yl-phenyl)-amide] | 42 nM
O=C(CO)N1CCN(c2ccc3c(C4CCN(C(=O)Nc5ccc(N6CCCC6)cc5)CC4)ncnc3c2)CC1 [Compound 201, 4-{7-[4-(2-Hydroxy-acetyl)-piperazin-1-yl]-quinazolin-7-yl}-piperidine-1-carboxylic acid (4-pyrrolidin-1-yl-phenyl)-amide] | 65 nM
O=C(Nc1ccc(N2CCOCC2)cc1)N1CCC(c2ncnc3cc(N4CCC(F)CC4)ccc23)CC1 [Compound 196, 4-[7-(4-Fluoro-piperidin-1-yl)-quinazolin-4-yl]-piperidine-1-carboxylic acid (4-morpholin-4-yl-phenyl)-amide] | 3 nM
CC(=O)N1CCC[C@H]1COc1ccc2c(C3CCN(C(=O)Nc4ccc(N5CCCC5)cc4)CC3)ncnc2c1 [Example 162, (S)-4-[7-(1-Acetyl-pyrrolidin-2-ylmethoxy)-quinazolin-4-yl]-piperidine-1-carboxylic acid (4-pyrrolidin-1-yl-phenyl)-amide] | 10 nM
O=C(Nc1ccc(N2CCCC2)cc1)N1CCC(c2ncnc3cc(O[C@@H]4CCOC4)ccc23)CC1 [Compound 191, (R)-4-[7-(Tetrahydro-furan-3-yloxy)-quinazolin-4-yl]-piperidine-1-carboxylic acid (4-pyrrolidin-1-yl-phenyl)-amide] | 144 nM
COCCN1CCN(c2ccc3c(C4CCN(C(=O)Nc5ccc(N6CCCC6)cc5)CC4)ncnc3c2)CC1 [Compound 186, 4-{7-[4-(2-Methoxy-ethyl)-piperazin-1-yl]-quinazolin-4-yl}-piperidine-1-carboxylic acid (4-pyrrolidin-1-yl-phenyl)-amide] | 3 nM
O=C(Nc1ccc(N2CCOCC2)cc1)N1CCC(c2ncnc3cc(N4CC[C@H](O)C4)ccc23)CC1 [Example 128, 4-[7-(3-Hydroxy-pyrrolidin-1-yl)-quinazolin-4-yl]-piperidine-1-carboxylic acid (4-morpholin-4-yl-phenyl)-amide] | 58 nM
COc1cc2ncnc(C3CCN(C(=O)Nc4ccc5ncsc5c4)CC3)c2cc1OC [Example 24, 4-(6,7-Dimethoxy-quinazolin-4-yl)-piperidine-1-carboxylic acid benzothiazol-6-ylamide] | 2600 nM
CC(=O)N1CCN(c2ccc3c(C4CCN(C(=O)Nc5ccc(N6CCCC6)cc5)CC4)ncnc3c2)CC1 [Example 166, 4-[7-(4-Acetyl-piperazin-1-yl)-quinazolin-4-yl]-piperidine-1-carboxylic acid (4-pyrrolidin-1-yl-phenyl)-amide] | 16 nM
COc1cc2ncnc(C3CCN(C(=O)Nc4ccc5[nH]ccc5c4)CC3)c2cc1OC [Example 23, 4-(6,7-Dimethoxy-quinazolin-4-yl)-piperidine-1-carboxylic acid (1H-indol-5-yl)-amide] | 900 nM
CN1CCN(CCOc2ccc3c(C4CCN(C(=O)Nc5ccc(N6CCCC6)cc5)CC4)ncnc3c2)CC1=O [Compound 202, 4-{7-[2-(4-Methyl-3-oxo-piperazin-1-yl)-ethoxy]-quinazolin-4-yl}-piperidine-1-carboxylic acid (4-pyrrolidin-1-yl-phenyl)-amide] | 15 nM
CN1CCN(c2ccc3c(C4CCN(C(=O)Nc5ccc(N6CCCC6)cc5)CC4)ncnc3c2)CC1=O [Compound 184, 4-[7-(4-Methyl-3-oxo-piperazin-1-yl)-quinazolin-4-yl]-piperidine-1-carboxylic acid (4-pyrrolidin-1-yl-phenyl)-amide] | 98 nM
CN1CCCN(c2ccc3c(C4CCN(C(=O)Nc5ccc(N6CCOCC6)cc5)CC4)ncnc3c2)CC1 [Example 138, 4-[7-(4-Methyl-[1,4]diazepan-1-yl)-quinazolin-4-yl]-piperidine-1-carboxylic acid (4-morpholin-4-yl-phenyl)-amide] | 107 nM

Continued, values first:

IC50 | SMILES
6 nM | CN1CCN(CCCOc2cc3ncnc(C4CCN(C(=O)Nc5ccc(N6CCOCC6)cc5)CC4)c3cc2F)CC1 [Compound 205, 4-{6-Fluoro-7-[3-(4-methyl-piperazin-1-yl)-propoxy]-quinazolin-4-yl}-piperidine-1-carboxylic acid (4-morpholin-4-yl-phenyl)-amide]
3 nM | O=C(Nc1ccc(N2CCCC2)cc1)N1CCC(c2ncnc3cc(N4CCN(c5ncccn5)CC4)ccc23)CC1 [Compound 193, 4-[7-(4-Pyrimidin-2-yl-piperazin-1-yl)-quinazolin-4-yl]-piperidine-1-carboxylic acid (4-pyrrolidin-1-yl-phenyl)-amide]
59 nM | O=C(Nc1ccc(N2CCCC2)cc1)N1CCC(c2ncnc3cc(OCCCN4CCC[C@H]4CO)ccc23)CC1 [Example 161, (S)-4-{7-[3-(2-Hydroxymethyl-pyrrolidin-1-yl)-propoxy]-quinazolin-4-yl}-piperidine-1-carboxylic acid (4-pyrrolidin-1-yl-phenyl)-amide]
27 nM | CN1CCN(c2ccc3c(C4CCN(C(=O)Nc5ccc(N6CCOCC6)cc5)CC4)ncnc3c2)CC1 [Example 135, 4-[7-(4-Methyl-piperazin-1-yl)-quinazolin-4-yl]-piperidine-1-carboxylic acid (4-morpholin-4-yl-phenyl)-amide]
17 nM | COc1cc2ncnc(C3CCN(C(=O)Nc4ccc(OC(C)C)cc4)CC3)c2cc1OC [Example 1, 4-(6,7-Dimethoxy-quinazolin-4-yl)-piperidine-1-carboxylic acid (4-isopropoxy-phenyl)-amide hydrochloride]
14 nM | O=C(Nc1ccc(N2CCOCC2)cc1)N1CCC(c2ncnc3cc(N4CCOCC4)ccc23)CC1 [Example 145, 4-(7-Morpholin-4-yl-quinazolin-4-yl)-piperidine-1-carboxylic acid (4-morpholin-4-yl-phenyl)-amide]
6 nM | CN1CCN(c2ccc3c(C4CCN(C(=O)Nc5ccc(N6CCCC6)cc5)CC4)ncnc3c2)CC1 [Example 159, 4-[7-(4-Methyl-piperazin-1-yl)-quinazolin-4-yl]-piperidine-1-carboxylic acid (4-pyrrolidin-1-yl-phenyl)-amide]
211 nM | O=C(Nc1ccc(N2CCOCC2)cc1)N1CCC(c2ncnc3cc(N4CCC[C@H]4CO)ccc23)CC1 [Example 139, (S)-4-[7-(2-Hydroxymethyl-pyrrolidin-1-yl)-quinazolin-4-yl]-piperidine-1-carboxylic acid (4-morpholin-4-yl-phenyl)-amide]
5100 nM | COc1cc2ncnc(C3CCN(C(=O)Nc4ccc(CO)cc4)CC3)c2cc1OC [Example 22, 4-(6,7-Dimethoxy-quinazolin-4-yl)-piperidine-1-carboxylic acid (4-hydroxymethyl-phenyl)-amide]
24 nM | O=C(Nc1ccc(N2CCCC2)cc1)N1CCC(c2ncnc3cc(N4CCSCC4)ccc23)CC1 [Compound 182, 4-(7-Thiomorpholin-4-yl-quinazolin-4-yl)-piperidine-1-carboxylic acid (4-pyrrolidin-1-yl-phenyl)-amide]
5 nM | O=C(Nc1ccc(N2CCCC2)cc1)N1CCC(c2ncnc3cc(N4CCOCC4)ccc23)CC1 [Compound 181, 4-(7-Morpholin-4-yl-quinazolin-4-yl)-piperidine-1-carboxylic acid (4-pyrrolidin-1-yl-phenyl)-amide]
55 nM | CC(C)Oc1ccc(NC(=O)N2CCC(c3ncnc4ccc(C#CCN5CCOCC5)cc34)CC2)cc1 [Example 15, 4-[6-(3-Morpholin-4-yl-prop-1-ynyl)-quinazolin-4-yl]-piperidine-1-carboxylic acid (4-isopropoxy-phenyl)-amide]
41 nM | O=C(Nc1ccc(N2CCOCC2)cc1)N1CCC(c2ncnc3cc(N4CCN(CCO)CC4)ccc23)CC1 [Example 137, 4-{7-[4-(2-Hydroxy-ethyl)-piperazin-1-yl]-quinazolin-4-yl}-piperidine-1-carboxylic acid (4-morpholin-4-yl-phenyl)-amide]
